Results reported in article PMC3917480 (Bioorganic & medicinal chemistry, 2013).
Where a SMILES comes first, the peptide text is derived from it. The star is where a group is joined. X3 = O=C(c1ccc(N2CCNCC2)cn1)*; X5 = CC(C)COc1cccc(CC(=O)*)c1; X6 = CCCOc1cccc(CC(=O)*)c1; X2 = CCOc1cccc(CC(=O)*)c1

Assays:
CDK2/cyclin A = CDK2/cyclin A (Homo sapiens, UniProt P20248); experiment: CDK2A2 fluorescence polarization competitive binding assay; details: FLIP context
CDK4/cyclin D1 = CDK4/cyclin D1 (Homo sapiens, UniProt P24385); experiment: CDK4D1 fluorescence polarization competitive binding assay; details: for binding affinity (in words), CDK4D1: FLIP context
Sequence of CDK4/cyclin D1 (P24385 whole entry): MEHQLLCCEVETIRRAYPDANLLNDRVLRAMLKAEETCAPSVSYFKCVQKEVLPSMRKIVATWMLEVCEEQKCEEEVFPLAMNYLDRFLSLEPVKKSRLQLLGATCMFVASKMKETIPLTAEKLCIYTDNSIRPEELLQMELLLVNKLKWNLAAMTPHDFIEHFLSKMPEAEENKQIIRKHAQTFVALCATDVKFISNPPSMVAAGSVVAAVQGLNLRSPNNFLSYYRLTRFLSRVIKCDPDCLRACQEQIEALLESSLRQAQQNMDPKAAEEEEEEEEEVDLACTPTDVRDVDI
Sequence of CDK4/cyclin D1 (P11802 whole entry partner): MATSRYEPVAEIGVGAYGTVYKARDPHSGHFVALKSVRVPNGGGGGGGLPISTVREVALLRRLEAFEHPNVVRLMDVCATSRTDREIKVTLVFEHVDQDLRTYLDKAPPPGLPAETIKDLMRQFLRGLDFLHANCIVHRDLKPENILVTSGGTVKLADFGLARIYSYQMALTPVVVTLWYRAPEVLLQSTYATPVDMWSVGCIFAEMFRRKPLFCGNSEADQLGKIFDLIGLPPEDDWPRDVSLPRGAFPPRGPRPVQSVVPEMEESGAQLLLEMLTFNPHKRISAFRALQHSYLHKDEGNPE

`CCCOc1cccc(CC(=O)N[C@@H](CCCNC(=N)N)C(=O)N[C@@H](CC(C)C)C(=O)N[C@H](C(=O)N[C@@H](Cc2ccccc2)C(N)=O)[C@@H](C)CC)c1` [compound 5853] (X6-RLIF-NH2) was tested. Which “binding affinity (in words), CDK2A2” value (CDK2/cyclin A) did it give?
The value was “None of these analogs in the FLIP context possessed appreciable binding affinity”.

What about the “binding affinity (in words), CDK4D1” value (CDK4/cyclin D1) of the same molecule?
Its value is “None of these analogs in the FLIP context possessed appreciable binding affinity”.

With `CCOc1cccc(CC(=O)N[C@@H](CCCNC(=N)N)C(=O)N[C@@H](CC(C)C)C(=O)N[C@H](C(=O)N[C@@H](Cc2ccccc2)C(N)=O)[C@@H](C)CC)c1` [compound 5854] (X2-RLIF-NH2) as the molecule, how does the “binding affinity (in words), CDK2A2” value (CDK2/cyclin A) read?
The value was “None of these analogs in the FLIP context possessed appreciable binding affinity”.

What about the “binding affinity (in words), CDK4D1” value (CDK4/cyclin D1) of the same molecule?
Its value is “None of these analogs in the FLIP context possessed appreciable binding affinity”.

With `CC[C@H](C)[C@H](NC(=O)[C@H](CC(C)C)NC(=O)[C@H](CCCNC(=N)N)NC(=O)Cc1cccc(OCC(C)C)c1)C(=O)N[C@@H](Cc1ccccc1)C(N)=O` [compound 5855] (X5-RLIF-NH2) as the molecule, how does the “binding affinity (in words), CDK2A2” value (CDK2/cyclin A) read?
Its value is “None of these analogs in the FLIP context possessed appreciable binding affinity”.

What about the “binding affinity (in words), CDK4D1” value (CDK4/cyclin D1) of the same molecule?
Its value is “None of these analogs in the FLIP context possessed appreciable binding affinity”.

How did the “increased potency relative to 525 in CDK4D1” value (CDK4/cyclin D1; relative to 525) turn out when `CC[C@H](C)[C@H](NC(=O)[C@H](CC(C)C)NC(=O)[C@H](CCCNC(=N)N)NC(=O)c1ccc(N2CCNCC2)cn1)C(=O)N[C@@H](Cc1ccccc1)C(N)=O` [compound 5856] (X3-RLIF-NH2) was run?
The value was 2 fold.
